The text below walks through data of patent US20260001914A1, “MACROCYCLIC PEPTIDES TARGETING KRAS” (Merck Sharp & Dohme LLC, priority 2022, published 2026).

Broadly, the EC50 is the midpoint of the concentration-response curve. The low end stands for greater potency, the high end for weaker potency.

*1 amine or outer side, *2 acyl side, *3 side chain or, on linkers, in order; H or OH if unused. Where a SMILES comes first, the peptide text is derived from it. [ ]: non-standard residue; d: D form. NMeNva(5-imidazol-1-yl) = CN[C@@H](CCCn1ccnc1)C(=O)O; X23 = O=C([C@H](Cc1ccc(C(F)(F)F)nc1)N[*:1])[*:2]; Ala(pyrimidin-5-yl) = N[C@@H](Cc1cncnc1)C(=O)O; X25 = O=C([C@H](Cc1ccc(F)nc1)N[*:1])[*:2]; NMeAha = CN[C@@H](CCN=[N+]=[N-])C(=O)O; X2 = O=C([C@H](Cc1ccccc1F)O[*:1])[*:2]; X21 = O=C([C@@H]1C[C@H]1CN[*:1])[*:2]; X35 = CN([C@@H](CCCF)C(=O)[*:2])[*:1]; Phe(2-F) = N[C@@H](Cc1ccccc1F)C(=O)O; NMe3Pal = CN[C@@H](Cc1cccnc1)C(=O)O; X1 = O=C(C12CC(CN[*:1])(C1)C2)[*:2]; Aha = [N-]=[N+]=NCC[C@H](N)C(=O)O; NMeF = CN[C@@H](Cc1ccccc1)C(=O)O; PhLac = O=C(O)[C@@H](O)Cc1ccccc1; X9 = CCCC[C@H](O[*:1])C(=O)[*:2]; 3Pal = N[C@@H](Cc1cccnc1)C(=O)O; Ala(CN) = N#CC[C@H](N)C(=O)O; NMeNle = CCCC[C@H](NC)C(=O)O; NMeS = CN[C@@H](CO)C(=O)O; NMeA = CN[C@@H](C)C(=O)O; Nle = CCCC[C@H](N)C(=O)O; Nva = CCC[C@H](N)C(=O)O

For the assay, the target named is KRAS-G12D protein (Homo sapiens, UniProt P01116, G12D). The assay is described as follows: SOS-mediated nucleotide exchange assay (BODIPY-GDP / Tb-streptavidin TR-FRET). The assay is classed as biochemical. For orientation: In TR-FRET formats the signal depends on donor and acceptor labels being close together.
Sequence of KRAS-G12D protein (P01116 1-188 isoform P01116-2 G12D): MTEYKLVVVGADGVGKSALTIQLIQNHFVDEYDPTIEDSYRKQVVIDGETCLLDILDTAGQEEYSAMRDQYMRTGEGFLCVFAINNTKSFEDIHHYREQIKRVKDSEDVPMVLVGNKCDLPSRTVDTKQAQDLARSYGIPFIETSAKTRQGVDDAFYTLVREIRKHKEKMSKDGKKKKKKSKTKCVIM
For `CCCC[C@@H]1NC(=O)[C@H](Cc2cccnc2)NC(=O)[C@H](CCCn2ccnc2)N(C)C(=O)[C@H](Cc2ccccc2)OC(=O)C23CC(CNC(=O)[C@H](Cc4ccccc4)N(C)C(=O)[C@H](CCCC)NC(=O)[C@H](Cc4ccccc4F)NC1=O)(C2)C3` [compound 233, cyclo(FLac-NMeNvalmid-3Pal-Nle-Phe2F-Nle-NMeF-amBCP)] (cyclo([3Pal][Nle][Phe(2-F)][Nle][NMeF][X1][PhLac][NMeNva(5-imidazol-1-yl)])), the EC50 turned out to be 28.9 nM.

For `CCCC[C@@H]1NC(=O)[C@H](Cc2ccc(F)nc2)NC(=O)[C@H](C)N(C)C(=O)[C@H](Cc2ccccc2)OC(=O)C23CC(CNC(=O)[C@H](Cc4ccccc4)N(C)C(=O)[C@H](CCC)NC(=O)[C@H](Cc4ccccc4F)NC1=O)(C2)C3` [compound 234, cyclo(FLac-NMeA-4F3Pal-Nle-Phe2F-Nva-NMeF-amBCP)] (cyclo([NMeA][X25][Nle][Phe(2-F)][Nva][NMeF][X1][PhLac])), the concentration giving a half-maximal response (EC50) was 997 nM. Against the preceding molecule, the EC50 is about 34-fold higher.

`CCCC[C@@H]1NC(=O)[C@H](Cc2ccc(F)nc2)NC(=O)[C@H](C)N(C)C(=O)[C@H](Cc2ccccc2)OC(=O)C23CC(CNC(=O)[C@H](Cc4cccnc4)N(C)C(=O)[C@H](CCCC)NC(=O)[C@H](Cc4ccccc4F)NC1=O)(C2)C3` [compound 235, cyclo(FLac-NMeA-4F3Pal-Nle-Phe2F-Nle-NMe3Pal-amBCP)] (cyclo([NMe3Pal][X1][PhLac][NMeA][X25][Nle][Phe(2-F)][Nle])) showed a concentration for a half-maximal effect (EC50) of 18.7 nM. This EC50 is about 53-fold lower than that of the molecule before.

For the molecule `CCCC[C@@H]1NC(=O)[C@H](Cc2cccnc2)NC(=O)[C@H](C)N(C)C(=O)[C@H](Cc2ccccc2)OC(=O)C23CC(CNC(=O)[C@H](Cc4ccccc4)N(C)C(=O)[C@H](CCCC)NC(=O)[C@H](Cc4ccccc4F)NC1=O)(C2)C3` [compound 236, cyclo(FLac-NMeA-3Pal-Nle-Phe2F-Nle-NMeF-amBCP)] (cyclo([3Pal][Nle][Phe(2-F)][Nle][NMeF][X1][PhLac][NMeA])), it took 50.3 nM to reach a half-maximal effect (EC50).

For `CCCC[C@@H]1NC(=O)[C@H](Cc2cncnc2)NC(=O)[C@H](C)N(C)C(=O)[C@H](Cc2ccccc2)OC(=O)C23CC(CNC(=O)[C@H](Cc4cccnc4)N(C)C(=O)[C@H](CCCC)NC(=O)[C@H](Cc4ccccc4F)NC1=O)(C2)C3` [compound 237, cyclo(FLac-NMeA-PyrimAla-Nle-Phe2F-Nle-NMe3Pal-amBCP)] (cyclo([NMe3Pal][X1][PhLac][NMeA][Ala(pyrimidin-5-yl)][Nle][Phe(2-F)][Nle])), the midpoint of the response, the EC50, lay at 33.7 nM.

The molecule `CCCC[C@@H]1NC(=O)[C@H](Cc2cccnc2)NC(=O)[C@H](CCN=[N+]=[N-])N(C)C(=O)[C@H](Cc2ccccc2)OC(=O)C23CC(CNC(=O)[C@H](Cc4cccnc4)N(C)C(=O)[C@H](CCCC)NC(=O)[C@H](Cc4ccccc4F)OC1=O)(C2)C3` [compound 238, cyclo(FLac-NMeDabN3-3Pal-Nle-F2FLac-Nle-NMe3Pal-amBCP)] (cyclo([3Pal][Nle][X2][Nle][NMe3Pal][X1][PhLac][NMeAha])) returned an EC50 of 5590 nM.

In turn, `CCCC[C@@H]1NC(=O)[C@H](Cc2cccnc2)NC(=O)[C@H](CCCF)N(C)C(=O)[C@H](Cc2ccccc2)OC(=O)C23CC(CNC(=O)[C@H](Cc4cccnc4)N(C)C(=O)[C@H](CCCC)NC(=O)[C@H](Cc4ccccc4F)NC1=O)(C2)C3` [compound 239, cyclo(FLac-NMeNvaF-3Pal-Nle-Phe2F-Nle-NMe3Pal-amBCP)] (cyclo([3Pal][Nle][Phe(2-F)][Nle][NMe3Pal][X1][PhLac][X35])) displayed an EC50 of 297 nM.

`CCCC[C@@H]1NC(=O)[C@H](Cc2cncnc2)NC(=O)[C@H](CCCn2ccnc2)N(C)C(=O)[C@H](Cc2ccccc2)OC(=O)C23CC(CNC(=O)[C@H](Cc4cccnc4)N(C)C(=O)[C@H](CCCC)NC(=O)[C@H](Cc4ccccc4F)NC1=O)(C2)C3` [compound 240, cyclo(FLac-NMeNvalmid-PyrimAla-Nle-Phe2F-Nle-NMe3Pal-amBCP)] (cyclo([NMe3Pal][X1][PhLac][NMeNva(5-imidazol-1-yl)][Ala(pyrimidin-5-yl)][Nle][Phe(2-F)][Nle])) displayed a concentration for a half-maximal effect (EC50) of 27.2 nM.

`CCCC[C@@H]1NC(=O)[C@H](Cc2ccc(C(F)(F)F)nc2)NC(=O)[C@H](CCN=[N+]=[N-])N(C)C(=O)[C@H](Cc2ccccc2)OC(=O)C23CC(CNC(=O)[C@H](Cc4cccnc4)N(C)C(=O)[C@H](CCCC)NC(=O)[C@H](Cc4ccccc4F)NC1=O)(C2)C3` [compound 241, cyclo(FLac-NMeDabN3-4CF33Pal-Nle-Phe2F-Nle-NMe3Pal-amBCP)] (cyclo([NMe3Pal][X1][PhLac][NMeAha][X23][Nle][Phe(2-F)][Nle])) yielded a concentration for a half-maximal effect (EC50) of 435 nM.

For the molecule `CCCC[C@@H]1NC(=O)[C@H](Cc2cncnc2)NC(=O)[C@H](CCN=[N+]=[N-])N(C)C(=O)[C@H](Cc2ccccc2)OC(=O)C23CC(CNC(=O)[C@H](Cc4cccnc4)N(C)C(=O)[C@H](CCCC)NC(=O)[C@H](Cc4ccccc4F)NC1=O)(C2)C3` [compound 242, cyclo(FLac-NMeDabN3-PyrimAla-Nle-Phe2F-Nle-NMe3Pal-amBCP)] (cyclo([NMe3Pal][X1][PhLac][NMeAha][Ala(pyrimidin-5-yl)][Nle][Phe(2-F)][Nle])), the EC50 stood at 80.9 nM.

Consider `CCCC[C@@H]1NC(=O)[C@H](Cc2ccccc2F)NC(=O)[C@H](CCN=[N+]=[N-])NC(=O)[C@H](Cc2cccnc2)NC(=O)[C@H](CCCC)N(C)C(=O)[C@H](Cc2ccccc2)OC(=O)C23CC(CNC(=O)[C@H](Cc4cccnc4)N(C)C1=O)(C2)C3` [compound 243, cyclo(FLac-NMeNle-3Pal-DabN3-Phe2F-Nle-NMe3Pal-amBCP)] (cyclo([3Pal][Aha][Phe(2-F)][Nle][NMe3Pal][X1][PhLac][NMeNle])), for which the response was half-maximal at 3060 nM (EC50).

Molecule `CCCC[C@@H]1NC(=O)[C@H](Cc2cccnc2)NC(=O)[C@H](C)N(C)C(=O)[C@H](Cc2ccccc2)OC(=O)C23CC(CNC(=O)[C@H](Cc4cccnc4)N(C)C(=O)[C@H](CCCC)NC(=O)[C@H](Cc4ccccc4F)NC1=O)(C2)C3` [compound 244, cyclo(FLac-NMeA-3Pal-Nle-Phe2F-Nle-NMe3Pal-amBCP)] (cyclo([3Pal][Nle][Phe(2-F)][Nle][NMe3Pal][X1][PhLac][NMeA])) displayed a half-maximal effective concentration (EC50) of 36 nM.

Molecule `CCCC[C@@H]1NC(=O)[C@H](Cc2cccnc2)NC(=O)[C@H](CCN=[N+]=[N-])N(C)C(=O)[C@H](Cc2ccccc2)NC(=O)C23CC(CNC(=O)[C@H](Cc4cccnc4)N(C)C(=O)[C@H](CCCC)NC(=O)[C@H](Cc4ccccc4F)NC1=O)(C2)C3` [compound 245, cyclo(F-NMeDabN3-3Pal-Nle-Phe2F-Nle-NMe3Pal-amBCP)] (cyclo(F[NMeAha][3Pal][Nle][Phe(2-F)][Nle][NMe3Pal][X1])) registered a concentration giving a half-maximal response (EC50) of 267 nM.

As for `CCCC[C@@H]1NC(=O)[C@H](Cc2cncnc2)NC(=O)[C@H](CCCn2ccnc2)N(C)C(=O)[C@H](Cc2ccccc2)OC(=O)C23CC(CNC(=O)[C@H](Cc4cccnc4)N(C)C(=O)[C@H](CCCC)NC(=O)[C@H](Cc4ccccc4F)OC1=O)(C2)C3` [compound 246, cyclo(FLac-NMeNvalmid-PyrimAla-Nle-F2FLac-Nle-NMe3Pal-amBCP)] (cyclo([NMe3Pal][X1][PhLac][NMeNva(5-imidazol-1-yl)][Ala(pyrimidin-5-yl)][Nle][X2][Nle])), the EC50 turned out to be 1160 nM.

Molecule `CCCC[C@@H]1NC(=O)[C@H](Cc2cccnc2)NC(=O)[C@H](CCN=[N+]=[N-])N(C)C(=O)[C@H](Cc2ccccc2)OC(=O)C23CC(CNC(=O)[C@H](Cc4cccnc4)N(C)C(=O)[C@H](CCCC)NC(=O)[C@H](Cc4ccccc4F)NC1=O)(C2)C3` [compound 249, cyclo(FLac-NMeDabN3-3Pal-Nle-Phe2F-Nle-NMe3Pal-amBCP)] (cyclo([3Pal][Nle][Phe(2-F)][Nle][NMe3Pal][X1][PhLac][NMeAha])) registered an EC50 of 87.6 nM.

Consider `CCCC[C@@H]1NC(=O)[C@H](Cc2ccccc2F)NC(=O)[C@H](CCCC)OC(=O)[C@H](Cc2cccnc2)NC(=O)[C@H](CCN=[N+]=[N-])N(C)C(=O)[C@H](Cc2ccccc2)NC(=O)C23CC(CNC(=O)[C@H](Cc4cccnc4)N(C)C1=O)(C2)C3` [compound 250, cyclo(F-NMeDabN3-3Pal-NleLac-Phe2F-Nle-NMe3Pal-amBCP)] (cyclo(F[NMeAha][3Pal][X9][Phe(2-F)][Nle][NMe3Pal][X1])), for which the EC50 worked out at 3880 nM.

Turning to `CCCC[C@@H]1NC(=O)[C@H](Cc2cccnc2)NC(=O)[C@H](CCCn2ccnc2)N(C)C(=O)[C@H](Cc2ccccc2)NC(=O)[C@@H]2C[C@H]2CNC(=O)[C@H](Cc2cccnc2)N(C)C(=O)[C@H](CCCC)NC(=O)[C@H](Cc2ccccc2F)NC1=O` [compound 251, cyclo(F-NMeNvalmid-3Pal-Nle-Phe2F-Nle-NMe3Pal-tamcPr)] (cyclo(F[NMeNva(5-imidazol-1-yl)][3Pal][Nle][Phe(2-F)][Nle][NMe3Pal][X21])), the 50% effective concentration (EC50) is 272 nM. This EC50 lies about 14-fold lower than the previous one.

For `CCCC[C@@H]1NC(=O)[C@H](Cc2cccnc2)NC(=O)[C@H](CC#N)NC(=O)[C@H](Cc2ccccc2)OC(=O)C23CC(CNC(=O)[C@H](Cc4cccnc4)N(C)C(=O)[C@H](CCCC)NC(=O)[C@H](Cc4ccccc4F)NC1=O)(C2)C3` [compound 252, cyclo(FLac-AlaCN-3Pal-Nle-Phe2F-Nle-NMe3Pal-amBCP)] (cyclo([3Pal][Nle][Phe(2-F)][Nle][NMe3Pal][X1][PhLac][Ala(CN)])), a half-maximal response (EC50) required 3750 nM.

As to `CCCC[C@@H]1NC(=O)[C@H](Cc2cccnc2)NC(=O)[C@H](COC)N(C)C(=O)[C@H](Cc2ccccc2)OC(=O)C23CC(CNC(=O)[C@H](Cc4cccnc4)N(C)C(=O)[C@H](CCCC)NC(=O)[C@H](Cc4ccccc4F)NC1=O)(C2)C3` [compound 255, cyclo(FLac-nMeSMe-3Pal-Nle-Phe2F-Nle-NMe3Pal-amBCP)] (cyclo([3Pal][Nle][Phe(2-F)][Nle][NMe3Pal][X1][PhLac][NMeS](Me))), the half-maximal effective concentration (EC50) amounted to 6410 nM.

Turning to `CCCC[C@@H]1NC(=O)[C@H](Cc2cccnc2)NC(=O)[C@H](CCCn2ccnc2)N(C)C(=O)[C@H](Cc2ccccc2)N(C)C(=O)[C@@H]2C[C@H]2CNC(=O)[C@H](Cc2cccnc2)N(C)C(=O)[C@H](CCCC)NC(=O)[C@H](Cc2ccccc2F)NC1=O` [compound 256, cyclo(NMeF-NMeNvaImid-3Pal-Nle-Phe2F-Nle-NMe3Pal-tamcPr)] (cyclo([3Pal][Nle][Phe(2-F)][Nle][NMe3Pal][X21][NMeF][NMeNva(5-imidazol-1-yl)])), the concentration for a half-maximal effect (EC50) came to 7650 nM. The EC50 values of the last two molecules are within 1.5-fold of each other.
